From patent publication US4767749A, “Ester of (triarylphosphoranylidene)carbamic acid having diuretic and ability to lower plasma renin properties” (American Cyanamid Company, priority 1986, dated 1988)
Like-named read-outs stand apart in the source and are kept apart here.

Tests used:
plasma renin activity [1] = test: Lowering of plasma renin activity in normal conscious rats; format: in vivo, male Wistar rats; conditions: single 25 mg/kg oral dose, 6 rats
Description: Compounds were tested for their ability to lower plasma renin activity of conscious, male Wistar rats (180-200 g, Charles River Labs.). Test agents were compounded in a mortar and pestle with 3% preboiled starch suspension. Rats were dosed orally by gavage with 25 mg/kg test agent in a dose volume of 2 ml/kg. At time zero and 1/3, 1, 3 and 6 hours relative to dosing, rats were sacrificed by decapitation and the first 3 seconds of blood collected in two chilled Vacutainer® tubes (Becton-Dickinson, Rutherford, N.J.) containing 40 μl of 150 mg/ml tripotassium EDTA. Plasma fractions, obtained by centrifugation for 20 minutes at 4° C. and 3000 G, were incubated (one of each pair at 37° C., the other at 4° C.) at pH 6.8 in 50 mM phosphate buffer to produce angiotensin I. The incubates contained peptidase inhibitors to prevent angiotensin I degradation and the buffer contained one mg/ml lysozyme (Sigma Grade III) used as an antiabsorbant. The incubates were diluted 20 fold in cold Tris buffer (pH adjusted to 7.4 with glacial acetic acid) also containing one mg/ml lysozyme, and then frozen. Diluted incubates were assayed within 3 days for angiotensin I content by radioimmunoassay according to a modification of the method of Haber, et al., J. Clin. Endocrin., 29, 1349-1355 (1969). Renin activity is calculated as the rate of production of angiotensin I (nanograms of angiotensin I/ml plasma/hour at 37° C.) less controls (rate at 4° C.).

plasma renin activity [2] = test: Inhibition of evoked (drug-induced) elevation of plasma renin activity in conscious rats; format: in vivo, male Wistar rats; conditions: Rattus norvegicus, 30 min before provocative treatment
Description: Inhibition of evoked increase of plasma renin activity was determined by the following test.
Compounds were tested for their ability to prevent drug-induced elevation of plasma renin activity (PRA) in concious, male Wistar rats (180-200 g, Charles River Lab.). PRA elevation was induced by a combined oral provacative treatment (C) of hydrochlorothiazide (10 mg/kg) and 1-(3-benzoyl-3-mercapto-2-methylpropionyl)-L-proline, acetate (U.S. Pat. No. 4,226,775) (one mg/kg), prepared by compounding in a mortar and pestle with preboiled 3% starch suspension. This treatment provided the daily maximum PRA. The daily minimum PRA was obtained from rats given oral starch suspension (S) alone. The magnitude of drug effect on PRA elevation was ascertained from rats pretreated orally with test agent (D), at the indicated doses, 30 minutes prior to administration of provacative treatment (C). The test agent was also compounded in preboiled 3% starch suspension. The dose volumes for both pretreatment and provocative treatment were 2 ml/kg. One hour after provocative treatment the rats were sacrificed by decapitation and the first 3 seconds of blood collected in two chilled Vacutainer® tubes (Becton-Dickinson, Rutherford, N.J.) containing 40 μl of 150 mg/ml tripotassium EDTA. The plasma fractions, obtained by centrifugation for 20 minutes at 4° C. and 3000 G, were incubated (one of each pair at 37° C., the other at 4° C.) at pH 6.8 in 50 mM phosphate buffer to produce angiotensin I. The incubates contained peptidase inhibitors to prevent angiotensin I degradation and the incubation buffer contained one mg/ml lysozyme (Sigma Grade III) used as an antiabsorbant. The incubates were diluted 20 fold in cold 100 mM Tris buffer (pH adjusted to 7.4 with glacial acetic acid) also containing one mg/ml lysozyme, and then frozen. Diluted incubates were assayed within 3 days for angiotensin I content by radioimmunoassay according to a modification of the method of Haber, et al., J. Clin. Endocrin., 29, 1349-1355 (1969).
PRA is calculated as follows:
PRA(ng AI/hour/ml plasma)=PRA 37° C.-PRA 4° C.
Percent inhibition of PRA elevation is calculated as follows: [formula]

[3] = test system: spontaneously hypertensive rats (SHR); test: Diuretic activity in spontaneously hypertensive rats; format: in vivo, male spontaneously hypertensive rats (Okamoto strain); conditions: 100 mg/kg by gavage with 0.9% sodium chloride loading 25 ml/kg; 0-5 hour urine
How it was run: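 Male Okamoto SHR (about 300 g, 16 weeks old) given test compound by gavage at 100 mg/kg, suspended in 3% preboiled starch, with 0.9% NaCl load at 25 ml/kg at zero hour. Urine collected 0–5 h in metabolism cages. Urinary sodium and potassium reported as mEq excreted.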

isolated rat hearts = test: Cardiodynamic effects in the isolated perfused rat heart preparation; conditions: for activation at 1 µg/mL / activation at 4 µg/mL / activation at 8 µg/mL: Rattus norvegicus; for HR (mean % change): rate of cardiac contraction
Description: The effect of (triphenylphospharnylidene)carbamic acid, ethyl ester on cardiac contractility was determined by the following test.
Isolated rat hearts were prepared and perfused essentially as described by Neely and Rovetto, Techniques for perfusing isolated rat hearts., in Methods of Enzymology, 24, part D, 43-60 (1975), J. G. Hardman and B. W. O'Malley (eds.), Academic Press, New York, N.Y. The hearts were cooled in ice cold saline and transferred to a Langendorff apparatus and perfused in a retrograde fashion with oxygenated Krebs-Henseleit buffer at 37° C. A 2-0 silk thread was secured to the left ventricular apex and run via pulleys to a force displacement transducer (Grass Instrument Co., model FT03C). Force of contraction (F), the first derivative of force with respect to time (dF/dt), and rate of cardiac contraction (HR) were monitored on a polygraph recorder (Grass Instrument Co., model 7D).
The perfusion medium was a modified Krebs-Henseleit buffer of the following composition:
This medium was equilibrated with 95% oxygen:5% carbon dioxide at 37° C.
(Triphenylphosphoranylidene)carbamic acid, ethyl ester was dissolved in absolute ethanol at a concentration of 10 mg/ml and then diluted with Krebs-Henseleit buffer to the required stock concentration. The stock solution was infused at a constant rate by a syringe pump into the flow of buffer presented to the isolated heart at a rate necessary to achieve the desired final concentration.

[4] = test system: cardiac contractility in anesthetized dogs; test: Effect on cardiac contractility in anesthetized dogs, intravenous; format: in vivo, dog; conditions: intravenous administration; same effect as in isolated rat heart (Table IV)

In the case of `CCOC(=O)N=P(c1ccccc1)(c1ccccc1)c1ccccc1` [(Triphenylphosphoranylidene)carbamic acid, ethyl ester], the “% Lowering of plasma renin activity” value (plasma renin activity [1]; 0 hours after dose) is reported as 0%, the “% Lowering of plasma renin activity” value (plasma renin activity [1]; 1/3 hour after dose) is reported as 38% and the “% Lowering of plasma renin activity” value (plasma renin activity [1]; 1 hour after dose) is reported as 74%. The “% Lowering of plasma renin activity” value (plasma renin activity [1]; 3 hours after dose) was 59%, the “% Lowering of plasma renin activity” value (plasma renin activity [1]; 6 hours after dose) was 40% and the inhibition in vivo at 3 mg/kg (plasma renin activity [2]; 3 mg/kg oral) was 22%. For the same compound, the inhibition in vivo at 5 mg/kg (plasma renin activity [2]; 5 mg/kg oral) was 29%, the inhibition in vivo at 7 mg/kg (plasma renin activity [2]; 7 mg/kg oral) was 46% and the inhibition in vivo at 10 mg/kg (plasma renin activity [2]; 10 mg/kg oral) was 81%. For the same compound, the inhibition in vivo at 15 mg/kg (plasma renin activity [2]; 15 mg/kg oral) was 79%, the inhibition in vivo at 25 mg/kg (plasma renin activity [2]; 25 mg/kg oral) was 80% and the “Potassium (urinary excretion)” value [3] was 0.50 mEQ/5 Hours. The “Sodium (urinary excretion)” value [3] was 1.86 mEQ/5 Hours, the “Volume (urine)” value [3] was 15.5 mL and the activation at 1 µg/mL (isolated rat hearts; final drug concentration 1 mg/liter, 7 hearts, read-out: Concentration Force (g) (mean % change)) was 5%. The activation at 1 µg/mL (isolated rat hearts; final drug concentration 1 mg/liter, 7 hearts, read-out: dF/dt (g/sec) (mean % change)) was 6%, the activation at 4 µg/mL (isolated rat hearts; final drug concentration 4 mg/liter, 6 hearts, read-out: Concentration Force (g) (mean % change)) was 18% and the activation at 4 µg/mL (isolated rat hearts; final drug concentration 4 mg/liter, 6 hearts, read-out: dF/dt (g/sec) (mean % change)) was 16%. The activation at 8 µg/mL (isolated rat hearts; final drug concentration 8 mg/liter, 5 hearts, read-out: Concentration Force (g) (mean % change)) was 24%, the activation at 8 µg/mL (isolated rat hearts; final drug concentration 8 mg/liter, 5 hearts, read-out: dF/dt (g/sec) (mean % change)) was 21% and the “HR (mean % change)” value (isolated rat hearts; final drug concentration 1 mg/liter, 7 hearts) was -3 mean % change. The “HR (mean % change)” value (isolated rat hearts; final drug concentration 4 mg/liter, 6 hearts) was -2 mean % change, the “HR (mean % change)” value (isolated rat hearts; final drug concentration 8 mg/liter, 5 hearts) was -2 mean % change and the “effect on cardiac contractility in anesthetized dogs” value [4] was “The same effect has been achieved”.
